Results reported in article PMC7277860, “Viridistratins A−C, Antimicrobial and Cytotoxic Benzo[j]fluoranthenes from Stromata of Annulohypoxylon viridistratum (Hypoxylaceae, Ascomycota)” (Biomolecules, 2020).
≈ marks a conversion by molar mass, not a printed value.

Key:
Assay in all cases: MIC serial dilution assay
Assay type in all cases: cell-based
[1] = test system: Mycolicibacterium smegmatis; details: Mycolicibacterium smegmatis ATCC700084; overnight, 37 °C; reference kanamycin 0.1 mg/mL
Procedure: (§1) Compounds 1, 2, 4 and 5 were dissolved in MeOH (1 mg/mL) for the antimicrobial activity assay, while compound 3 was dissolved in MeOH: DMSO 9+1 (1 mg/mL). The solvents were also used as negative controls.
(§2) Minimum inhibitory concentrations (MIC) were determined in a serial dilution assay, as described previously; a detailed protocol can be found in the Supporting Information. The compounds (1 mg/mL) were diluted to a range of 66.7 to 0.52 µg/mL and incubated with the test organisms overnight. Inhibition of growth was visually evaluated the next day: the MIC is defined as the lowest concentration of the test compound where no growth of the test organism was observed. Various test organisms of fungal and bacterial origin were tested to cover a broad range of microorganisms. This selection is also being used as a standard test panel in our attempts to discover new anti-infectives, as it represents a broad spectrum of pathogens of clinical interest, as well as sensitive indicator strains (bacteria: Bacillus subtilis, Staphylococcus aureus, Micrococcus luteus, Chromobacterium violaceum, Escherichia coli and Pseudomonas aeruginosa; mycobacteria: Mycolicibacterium smegmatis and fungi: Candida albicans, Schizosaccharomyces pombe, Mucor hiemalis, Pichia anomala and Rhodotorula glutinis).
(§3) Protocol: Antimicrobial Activi ty Assay
(§4) The assay was conducted as a minimum inhi bitory concentration (MIC) assay in 96-well ro und-bottom mi crotiter pl ate s usi ng the p ar ameter s su mm ari zed i n T a bl e S 1 and as already described i n [S1].
(§5) Stocks of the test organi sms were generated by growing the organisms o ver ni ght i n 50 mL shaki ng fl asks fi ll ed wi th 25 mL of the growth medi um at 140 rpm (for media and temperatures see Table S1). If the organisms were well grown the ne xt day, which was checked by occurrence of an optical density (OD)>30 of the suspension (OD600 nm for bacteria, OD548 nm for fungi and M. smegma tis) , aliquots of these were stored i n 1.5 mL reaction tube s in a freezer at −80 °C for up to 12 mo nths . Upon use, aliquots were unth awed and the OD of the suspension measured and adjusted by diluting with the respective growth medi um. OD600 nm w as adj usted to 0.01 and OD548 nm to 0.1.
(§6) Subse que ntly, 150 µL o f the adjusted suspensions were added to all wells of a 96-wel l microtiter pl ate (one test organi sm per plate). In row A, additional 130 µL of suspensions plus 20 µL of the test compounds (1 mg/mL) and the controls (one compound/column) were added. MeOH as well as MeOH:DMSO 9+1 were used as negative controls, while different positive controls (refer ences) were used for the test organisms (see Tabl e S1). Then, starti ng from row A, 150 µ L of the suspension were transferred to the next row, the contents thoroughly mixed, and 150 µ L transferred to the following row.
(§7) The remaining 150 µ L after row H were discarded. […]
(§8) compounds, ranging from 66.7 µg/mL i n row A to 0.52 µg/mL i n row H.
(§9) The microtiter plates were then incubated overnight o n a microplate shaker at 800 rpm at 30 or 37 °C (see Table S1) and were visually evaluated the next day. The MIC is defined as the lowest concentration were no growth of the test organism was o bserved. A lower MIC thus corresponds to a higher antimicrobial activity of the test compound.
(§10) Table S1: MIC assay ex per i men t parameters test organism strain No. growth incubation positive control (reference) […]
(§11) Rhodotorula glutinis DSM10134 MYC 3 30 nyst ati n 1.0 mg/mL
(§12) 1 MHB: Müller-Hinton Broth (SN X927.1, Ca r l Roth GmbH, Karlsruhe, Germany) 2 7H9+ADC: Middlebrook 7H9 Broth Base + Middlebrook ADC Growth Supplement (SN M0678+M0553, Merck, Darmstadt, Germany)
(§13) 3 MYC: 1 % w/v, bacto peptone, 1% w/v yeast extract, 2 % w /v glycerol, pH 6.3 [S1] Helaly, S.E.; Ashrafi, S.; Teponno, R.B.; Bernecker, S.; Dababat, A.A.; Maier, W.; Stadler, M.
(§14) Nematicidal Cyclic Lipodepsipeptides and a Xanthocillin Derivative from a Phaeosphariaceous […]

Rhodotorula glutinis = Rhodotorula glutinis DSM10134; overnight, 30 °C; reference nystatin 1 mg/mL
Procedure: as §1, §2, §3, §4, §5, §6, §7, §8, §9, §10, §11, §12, §13, §14

[2] = test system: Schizosaccharomyces pombe; details: Schizosaccharomyces pombe DSM70572; overnight, 30 °C; reference nystatin 1 mg/mL
Procedure: as §1, §2, §3, §4, §5, §6, §7, §8, §9, §10
Schizosaccharomyces DSM70572 MYC 3 30 nyst ati n 1.0 mg/mL […]
as §11, §12, §13, §14

Candida albicans = Candida albicans DSM1665; overnight, 30 °C; reference nystatin 1 mg/mL
Procedure: as §1, §2, §3, §4, §5, §6, §7, §8, §9, §10
Candida albicans DSM1665 MYC 3 30 nyst ati n 1.0 mg/mL […]
as §11, §12, §13, §14

Mucor hiemalis = Mucor hiemalis DSM2656; overnight, 30 °C; reference nystatin 1 mg/mL
Procedure: as §1, §2, §3, §4, §5, §6, §7, §8, §9, §10
Mucor hiemalis DSM2656 MYC 3 30 nyst ati n 1.0 mg/mL […]
as §11, §12, §13, §14

Pichia anomala = Pichia anomala DSM6766; overnight, 30 °C; reference nystatin 1 mg/mL
Procedure: as §1, §2, §3, §4, §5, §6, §7, §8, §9, §10
Pichia anomala DSM6766 MYC 3 30 nyst ati n 1.0 mg/mL
as §11, §12, §13, §14

Micrococcus luteus = details: Micrococcus luteus, DSM1790, Micrococcus luteus DSM1790; overnight, 30 °C; reference oxytetracycline 0.1 mg/mL; read-out: Minimum Inhibitory Concentration (MIC)
Procedure: as §1, §2, §3, §4, §5, §6, §7, §8, §9, §10
Micrococcus luteu s DSM1790 MHB 1 30 oxytetr acyclin 0.1 mg/mL […]
as §11, §12, §13, §14

[3] = test system: Chromobacterium violaceum; details: Chromobacterium violaceum DSM30191; overnight, 30 °C; reference oxytetracycline 0.1 mg/mL; read-out: Minimum Inhibitory Concentration (MIC)
Procedure: as §1, §2, §3, §4, §5, §6, §7, §8, §9, §10
Chromobacterium DSM30191 MHB 1 30 oxytetr acyclin 0.1 mg/mL […]
as §11, §12, §13, §14

Bacillus subtilis = Bacillus subtilis DSM10; overnight, 30 °C; reference oxytetracycline 1 mg/mL; read-out: Minimum Inhibitory Concentration (MIC)
Procedure: as §1, §2, §3, §4, §5, §6, §7, §8, §9, §10
Bacillus subtilis DSM10 MHB 1 30 oxytetr acyclin 1.0 mg/mL […]
as §11, §12, §13, §14

Escherichia coli = Escherichia coli DSM1116; overnight, 37 °C; reference oxytetracycline 0.1 mg/mL; read-out: Minimum Inhibitory Concentration (MIC)
Procedure: as §1, §2, §3, §4, §5, §6, §7, §8, §9, §10
Escherichia coli DSM1116 MHB 1 37 oxytetr acyclin 0.1 mg/mL […]
as §11, §12, §13, §14

Staphylococcus aureus = Staphylococcus aureus DSM346; overnight, 30 °C; reference oxytetracycline 0.1 mg/mL; read-out: Minimum Inhibitory Concentration (MIC)
Procedure: as §1, §2, §3, §4, §5, §6, §7, §8, §9, §10
Staphylococcus aureus DSM346 MHB 1 30 oxytetr acyclin 0.1 mg/mL […]
as §11, §12, §13, §14

`NC[C@H]1O[C@H](O[C@H]2[C@H](O)[C@@H](O[C@H]3O[C@H](CO)[C@@H](O)[C@H](N)[C@H]3O)[C@H](N)C[C@@H]2N)[C@H](O)[C@@H](O)[C@@H]1O` [kanamycin, reference compound] was tested, and the “Minimum Inhibitory Concentration (MIC)” value [1] was 3.3 ^4 µg/mL.
`C[C@@H]1[C@H](O)[C@@H](C)/C=C/C=C/CC/C=C/C=C/C=C/C=C/C(O[C@H]2O[C@H](C)[C@@H](O)[C@H](N)[C@@H]2O)CC2O[C@](O)(CC(O)C(O)CCC(O)CC(O)CC(O)CC(=O)O[C@H]1C)CC(O)C2C(=O)O` (some centres unmarked) [nystatin, reference compound] was tested, and the “Minimum Inhibitory Concentration (MIC)” value (Rhodotorula glutinis) was 16.7 ^5 µg/mL, the “Minimum Inhibitory Concentration (MIC)” value [2] was 33.3 ^5 µg/mL and the “Minimum Inhibitory Concentration (MIC)” value (Candida albicans) was 66.7 ^5 µg/mL. For the same molecule, the “Minimum Inhibitory Concentration (MIC)” value (Mucor hiemalis) was 66.7 ^5 µg/mL and the “Minimum Inhibitory Concentration (MIC)” value (Pichia anomala) was 66.7 ^5 µg/mL.
Molecule `CN(C)[C@@H]1C(O)=C(C(N)=O)C(=O)[C@@]2(O)C(O)=C3C(=O)c4c(O)cccc4[C@@](C)(O)[C@H]3[C@H](O)[C@@H]12` [oxytetracycline, reference compound] has an MIC (Micrococcus luteus) of 0.8 µg/mL (≈ 1.74 µM), an MIC [3] of 0.1 µg/mL (≈ 0.217 µM) and an MIC (Bacillus subtilis) of 8.3 µg/mL (≈ 18 µM). The MIC (Escherichia coli) was 1.7 µg/mL (≈ 3.69 µM) and the MIC (Staphylococcus aureus) was 0.4 µg/mL (≈ 0.869 µM).
